Tests used:
[1] = target: T1, Testis-specific serine/threonine-protein kinase 3 (Homo sapiens) (UniProt Q96PN8); details: Compound concentration 1000.0 nM
T1 sequence (whole entry): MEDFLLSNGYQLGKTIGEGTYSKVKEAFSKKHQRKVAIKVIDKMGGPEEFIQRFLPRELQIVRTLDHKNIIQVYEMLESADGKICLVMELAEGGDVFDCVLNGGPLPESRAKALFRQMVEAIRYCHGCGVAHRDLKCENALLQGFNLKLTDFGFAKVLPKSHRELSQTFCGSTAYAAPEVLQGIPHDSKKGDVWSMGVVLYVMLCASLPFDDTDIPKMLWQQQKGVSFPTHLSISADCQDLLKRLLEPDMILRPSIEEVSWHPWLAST

[2] = tested on: Tyrosine-protein kinase ABL1 (Homo sapiens), P00519 [E255K]; details: Compound concentration 1000.0 nM
[3] = target: T2, Aurora kinase A (Homo sapiens) (UniProt O14965); details: Compound concentration 1000.0 nM
T2 sequence (whole entry): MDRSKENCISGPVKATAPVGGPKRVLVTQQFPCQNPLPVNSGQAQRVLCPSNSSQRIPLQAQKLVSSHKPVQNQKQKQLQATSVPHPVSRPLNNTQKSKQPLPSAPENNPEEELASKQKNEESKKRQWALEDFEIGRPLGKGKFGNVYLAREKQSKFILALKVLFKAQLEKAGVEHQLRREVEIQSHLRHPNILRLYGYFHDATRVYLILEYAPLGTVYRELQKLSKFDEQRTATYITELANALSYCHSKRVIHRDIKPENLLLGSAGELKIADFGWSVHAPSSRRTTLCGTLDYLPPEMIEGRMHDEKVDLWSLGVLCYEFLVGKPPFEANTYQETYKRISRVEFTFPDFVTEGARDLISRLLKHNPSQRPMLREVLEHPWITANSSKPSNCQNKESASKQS

[4] = target: Casein kinase I isoform gamma-3 (Homo sapiens) (UniProt Q9Y6M4); details: Compound concentration 1000.0 nM
[5] = target: Casein kinase I isoform gamma-1 (Homo sapiens) (UniProt Q9HCP0); details: Compound concentration 1000.0 nM
[6] = target: Cyclin-dependent kinase 4 (Homo sapiens) (UniProt P11802); details: Compound concentration 1000.0 nM
[7] = target: Mast/stem cell growth factor receptor Kit (Homo sapiens) (UniProt P10721); details: Compound concentration 1000.0 nM
[8] = target: 5'-AMP-activated protein kinase catalytic subunit alpha-1 (Homo sapiens, UniProt Q13131); assay: Cellular mechanistic pACC assay using Colo-320 cells; format: cell-based
[9] = target: SRSF protein kinase 3 (Homo sapiens) (UniProt Q9UPE1); details: Compound concentration 1000.0 nM
[10] = target: Histamine H1 receptor (Homo sapiens) (UniProt P35367); details: Compound concentration 10.0 uM
[11] = target: MAP kinase-interacting serine/threonine-protein kinase 1 (Homo sapiens) (UniProt Q9BUB5); details: Compound concentration 1000.0 nM
[12] = tested on: Serine/threonine-protein kinase B-raf (Homo sapiens), P15056 [V600E]; details: Compound concentration 1000.0 nM
[13] = target: T3, Cytoplasmic tyrosine-protein kinase BMX (Homo sapiens) (UniProt P51813); details: Compound concentration 1000.0 nM
T3 sequence (whole entry): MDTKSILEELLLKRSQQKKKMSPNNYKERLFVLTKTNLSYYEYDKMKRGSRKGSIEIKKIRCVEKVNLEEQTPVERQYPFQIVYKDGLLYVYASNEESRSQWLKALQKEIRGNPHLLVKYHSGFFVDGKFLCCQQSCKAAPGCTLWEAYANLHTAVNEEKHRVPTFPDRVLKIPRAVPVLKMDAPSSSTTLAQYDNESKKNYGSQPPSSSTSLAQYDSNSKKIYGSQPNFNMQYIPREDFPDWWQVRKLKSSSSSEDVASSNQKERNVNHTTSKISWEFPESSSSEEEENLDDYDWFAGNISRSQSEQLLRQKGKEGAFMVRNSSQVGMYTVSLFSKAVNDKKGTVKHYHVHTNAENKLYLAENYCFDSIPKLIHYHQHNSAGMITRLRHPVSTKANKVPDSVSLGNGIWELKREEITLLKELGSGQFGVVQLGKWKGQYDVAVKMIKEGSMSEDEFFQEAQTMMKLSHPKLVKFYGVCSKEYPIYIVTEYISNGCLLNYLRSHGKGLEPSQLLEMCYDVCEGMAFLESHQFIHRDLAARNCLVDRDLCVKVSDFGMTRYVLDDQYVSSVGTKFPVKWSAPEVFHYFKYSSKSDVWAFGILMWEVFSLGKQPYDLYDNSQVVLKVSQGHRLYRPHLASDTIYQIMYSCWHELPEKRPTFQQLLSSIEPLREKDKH

[14] = target: Tyrosine-protein kinase Yes (Homo sapiens) (UniProt P07947); details: Compound concentration 1000.0 nM
[15] = target: Megakaryocyte-associated tyrosine-protein kinase (Homo sapiens) (UniProt P42679); details: Compound concentration 1000.0 nM
[16] = tested on: Tyrosine-protein kinase ABL1 (Homo sapiens), P00519 [F317L]; details: Compound concentration 1000.0 nM
[17] = tested on: Tyrosine-protein kinase ABL1 (Homo sapiens), P00519 [H396P]; details: Compound concentration 1000.0 nM
[18] = target: Aurora kinase B (Homo sapiens) (UniProt Q96GD4); details: Compound concentration 1000.0 nM
[19] = target: T4, Serine/threonine-protein kinase 4 (Homo sapiens) (UniProt Q13043); details: Compound concentration 1000.0 nM
T4 sequence (whole entry): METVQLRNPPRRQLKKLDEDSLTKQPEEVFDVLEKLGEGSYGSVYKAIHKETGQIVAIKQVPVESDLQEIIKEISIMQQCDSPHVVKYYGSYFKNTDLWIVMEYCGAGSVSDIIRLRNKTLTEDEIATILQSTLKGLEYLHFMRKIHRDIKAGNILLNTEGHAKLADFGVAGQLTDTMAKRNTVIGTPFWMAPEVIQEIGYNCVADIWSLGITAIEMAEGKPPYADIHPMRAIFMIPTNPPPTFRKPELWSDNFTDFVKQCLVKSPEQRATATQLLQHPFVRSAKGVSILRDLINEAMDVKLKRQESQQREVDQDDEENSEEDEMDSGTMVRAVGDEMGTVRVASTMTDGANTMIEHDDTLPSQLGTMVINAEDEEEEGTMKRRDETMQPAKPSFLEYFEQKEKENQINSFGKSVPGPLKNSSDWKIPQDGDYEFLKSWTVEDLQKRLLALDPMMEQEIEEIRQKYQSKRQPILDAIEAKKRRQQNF

[20] = target: G protein-coupled receptor kinase 4 (Homo sapiens) (UniProt P32298); details: Compound concentration 1000.0 nM
Chain of G protein-coupled receptor kinase 4 (Homo sapiens) (P32298 whole entry, looked up): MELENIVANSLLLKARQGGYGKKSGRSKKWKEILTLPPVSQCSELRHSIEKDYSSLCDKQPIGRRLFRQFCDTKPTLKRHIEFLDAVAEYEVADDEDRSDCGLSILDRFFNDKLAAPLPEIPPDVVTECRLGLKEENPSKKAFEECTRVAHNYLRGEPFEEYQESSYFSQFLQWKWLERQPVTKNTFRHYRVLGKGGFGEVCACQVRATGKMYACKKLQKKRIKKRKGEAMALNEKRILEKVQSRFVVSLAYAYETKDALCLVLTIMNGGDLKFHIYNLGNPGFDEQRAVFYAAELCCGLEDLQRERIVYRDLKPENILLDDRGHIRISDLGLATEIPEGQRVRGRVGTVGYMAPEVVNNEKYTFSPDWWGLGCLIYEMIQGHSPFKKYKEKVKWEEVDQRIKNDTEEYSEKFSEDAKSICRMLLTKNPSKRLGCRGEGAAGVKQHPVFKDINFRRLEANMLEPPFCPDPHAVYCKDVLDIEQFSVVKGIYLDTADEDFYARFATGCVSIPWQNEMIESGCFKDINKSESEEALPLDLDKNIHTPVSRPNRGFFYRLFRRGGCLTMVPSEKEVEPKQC

Chain of Tyrosine-protein kinase Yes (Homo sapiens) (P07947 2-543 limits assumed): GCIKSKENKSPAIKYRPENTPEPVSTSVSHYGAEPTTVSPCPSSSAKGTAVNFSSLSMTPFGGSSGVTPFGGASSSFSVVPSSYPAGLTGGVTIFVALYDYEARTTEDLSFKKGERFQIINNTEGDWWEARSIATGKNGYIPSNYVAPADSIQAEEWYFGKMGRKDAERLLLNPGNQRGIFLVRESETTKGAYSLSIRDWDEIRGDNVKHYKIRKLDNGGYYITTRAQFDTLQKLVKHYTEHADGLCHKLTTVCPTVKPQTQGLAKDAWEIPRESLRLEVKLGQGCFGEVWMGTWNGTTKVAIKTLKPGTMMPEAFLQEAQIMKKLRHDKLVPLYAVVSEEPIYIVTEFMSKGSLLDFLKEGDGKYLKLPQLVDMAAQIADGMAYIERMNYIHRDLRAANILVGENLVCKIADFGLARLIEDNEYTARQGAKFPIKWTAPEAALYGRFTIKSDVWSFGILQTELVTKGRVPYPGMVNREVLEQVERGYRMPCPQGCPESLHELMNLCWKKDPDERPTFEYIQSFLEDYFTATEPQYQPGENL
Chain of Histamine H1 receptor (Homo sapiens) (P35367 whole entry): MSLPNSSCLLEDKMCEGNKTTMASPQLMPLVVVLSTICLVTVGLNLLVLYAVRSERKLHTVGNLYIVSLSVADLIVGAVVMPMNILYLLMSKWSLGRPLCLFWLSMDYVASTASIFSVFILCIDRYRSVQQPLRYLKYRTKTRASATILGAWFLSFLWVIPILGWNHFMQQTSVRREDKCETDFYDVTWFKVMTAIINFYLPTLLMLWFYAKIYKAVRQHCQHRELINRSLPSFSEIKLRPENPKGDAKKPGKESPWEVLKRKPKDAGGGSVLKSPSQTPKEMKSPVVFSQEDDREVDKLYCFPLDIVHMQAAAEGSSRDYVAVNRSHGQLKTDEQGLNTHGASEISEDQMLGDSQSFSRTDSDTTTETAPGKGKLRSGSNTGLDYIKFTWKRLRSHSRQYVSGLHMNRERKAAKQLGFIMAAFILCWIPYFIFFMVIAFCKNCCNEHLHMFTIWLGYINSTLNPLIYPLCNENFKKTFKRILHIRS
Chain of Aurora kinase B (Homo sapiens) (Q96GD4 whole entry): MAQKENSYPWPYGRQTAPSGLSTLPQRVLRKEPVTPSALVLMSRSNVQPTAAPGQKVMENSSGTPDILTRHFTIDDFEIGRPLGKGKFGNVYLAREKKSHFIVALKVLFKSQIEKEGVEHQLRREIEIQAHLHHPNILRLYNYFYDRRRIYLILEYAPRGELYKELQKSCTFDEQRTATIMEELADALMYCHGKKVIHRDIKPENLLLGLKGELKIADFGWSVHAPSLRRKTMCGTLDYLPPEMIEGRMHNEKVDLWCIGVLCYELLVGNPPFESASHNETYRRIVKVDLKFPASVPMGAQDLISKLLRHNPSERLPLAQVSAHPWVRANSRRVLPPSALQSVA
Chain of MAP kinase-interacting serine/threonine-protein kinase 1 (Homo sapiens) (Q9BUB5 whole entry, looked up): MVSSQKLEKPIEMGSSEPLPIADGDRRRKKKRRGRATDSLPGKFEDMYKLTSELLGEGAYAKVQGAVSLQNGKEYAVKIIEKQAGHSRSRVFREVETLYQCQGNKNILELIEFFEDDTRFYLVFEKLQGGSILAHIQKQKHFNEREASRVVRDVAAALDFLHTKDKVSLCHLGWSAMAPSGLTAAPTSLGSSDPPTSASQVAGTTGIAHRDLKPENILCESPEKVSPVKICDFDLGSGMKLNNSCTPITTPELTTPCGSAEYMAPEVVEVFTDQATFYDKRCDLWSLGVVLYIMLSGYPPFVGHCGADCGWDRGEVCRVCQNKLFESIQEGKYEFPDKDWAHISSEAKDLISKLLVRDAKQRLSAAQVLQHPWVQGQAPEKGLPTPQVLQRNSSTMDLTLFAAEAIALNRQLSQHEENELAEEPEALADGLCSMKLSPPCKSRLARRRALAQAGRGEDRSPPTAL
Chain of Mast/stem cell growth factor receptor Kit (Homo sapiens) (P10721 whole entry): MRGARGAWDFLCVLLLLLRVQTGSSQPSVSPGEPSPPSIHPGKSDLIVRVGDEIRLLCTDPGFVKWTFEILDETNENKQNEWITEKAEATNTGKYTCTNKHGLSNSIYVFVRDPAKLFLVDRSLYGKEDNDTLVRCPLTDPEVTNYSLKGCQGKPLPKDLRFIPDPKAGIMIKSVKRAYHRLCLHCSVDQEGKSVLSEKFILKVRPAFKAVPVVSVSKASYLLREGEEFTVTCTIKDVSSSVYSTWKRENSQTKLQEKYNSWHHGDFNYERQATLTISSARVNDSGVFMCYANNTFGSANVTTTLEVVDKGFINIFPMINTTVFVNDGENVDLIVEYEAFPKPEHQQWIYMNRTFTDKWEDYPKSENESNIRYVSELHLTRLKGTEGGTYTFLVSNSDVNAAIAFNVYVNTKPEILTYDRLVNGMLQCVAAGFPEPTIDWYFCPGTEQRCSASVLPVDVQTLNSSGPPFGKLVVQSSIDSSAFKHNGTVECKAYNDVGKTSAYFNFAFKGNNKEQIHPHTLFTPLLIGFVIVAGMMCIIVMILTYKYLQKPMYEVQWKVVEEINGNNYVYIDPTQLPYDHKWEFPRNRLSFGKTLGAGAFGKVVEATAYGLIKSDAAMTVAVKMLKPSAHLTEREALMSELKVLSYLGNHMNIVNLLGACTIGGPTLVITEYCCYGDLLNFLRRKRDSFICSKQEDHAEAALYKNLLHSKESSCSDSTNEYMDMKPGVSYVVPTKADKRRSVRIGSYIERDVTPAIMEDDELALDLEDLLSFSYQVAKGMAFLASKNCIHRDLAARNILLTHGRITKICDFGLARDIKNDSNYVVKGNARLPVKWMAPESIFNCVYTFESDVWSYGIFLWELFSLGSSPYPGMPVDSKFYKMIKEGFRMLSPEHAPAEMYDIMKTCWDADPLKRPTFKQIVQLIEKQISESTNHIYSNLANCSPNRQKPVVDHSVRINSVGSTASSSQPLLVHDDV
Chain of Megakaryocyte-associated tyrosine-protein kinase (Homo sapiens) (P42679 whole entry): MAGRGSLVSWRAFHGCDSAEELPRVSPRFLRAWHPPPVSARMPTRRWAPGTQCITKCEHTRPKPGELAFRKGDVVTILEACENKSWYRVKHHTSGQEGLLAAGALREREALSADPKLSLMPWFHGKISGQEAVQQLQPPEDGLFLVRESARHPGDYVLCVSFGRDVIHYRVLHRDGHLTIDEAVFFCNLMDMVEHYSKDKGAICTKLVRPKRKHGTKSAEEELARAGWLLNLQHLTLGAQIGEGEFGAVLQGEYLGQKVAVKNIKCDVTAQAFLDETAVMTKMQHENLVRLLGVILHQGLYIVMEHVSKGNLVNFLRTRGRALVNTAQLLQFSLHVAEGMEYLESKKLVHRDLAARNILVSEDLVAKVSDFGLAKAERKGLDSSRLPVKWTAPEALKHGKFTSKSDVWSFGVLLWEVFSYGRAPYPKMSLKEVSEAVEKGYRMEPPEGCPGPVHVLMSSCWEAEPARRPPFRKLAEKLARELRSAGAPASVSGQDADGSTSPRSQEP
Chain of Casein kinase I isoform gamma-1 (Homo sapiens) (Q9HCP0 whole entry, looked up, canonical isoform): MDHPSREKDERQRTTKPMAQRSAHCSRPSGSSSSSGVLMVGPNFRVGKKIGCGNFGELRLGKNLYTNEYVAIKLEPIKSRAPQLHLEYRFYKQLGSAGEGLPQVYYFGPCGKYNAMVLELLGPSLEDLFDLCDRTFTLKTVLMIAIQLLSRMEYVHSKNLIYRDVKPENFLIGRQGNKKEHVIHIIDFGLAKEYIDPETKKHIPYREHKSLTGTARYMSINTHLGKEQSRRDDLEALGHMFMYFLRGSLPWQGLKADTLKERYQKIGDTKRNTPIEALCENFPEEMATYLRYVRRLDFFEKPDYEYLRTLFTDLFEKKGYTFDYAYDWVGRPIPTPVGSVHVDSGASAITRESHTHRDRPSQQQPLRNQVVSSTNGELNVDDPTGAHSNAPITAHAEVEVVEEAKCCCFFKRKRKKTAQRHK
Chain of Cyclin-dependent kinase 4 (Homo sapiens) (P11802 whole entry): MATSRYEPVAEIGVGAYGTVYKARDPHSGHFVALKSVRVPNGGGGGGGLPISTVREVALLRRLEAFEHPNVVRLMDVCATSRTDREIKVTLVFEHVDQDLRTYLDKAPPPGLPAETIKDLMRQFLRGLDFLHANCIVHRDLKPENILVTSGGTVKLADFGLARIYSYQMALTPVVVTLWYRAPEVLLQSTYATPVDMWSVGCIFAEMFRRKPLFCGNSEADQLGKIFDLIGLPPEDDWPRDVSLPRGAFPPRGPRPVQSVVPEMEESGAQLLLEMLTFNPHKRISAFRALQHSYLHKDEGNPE

SMILES | residual activity [1] [%] | residual activity [2] [%] | residual activity [3] [%] | residual activity [4] [%] | residual activity [5] [%] | residual activity [6] [%] | residual activity [7] [%] | IC50 [8] | residual activity [9] [%] | inhibition [10] [%] | residual activity [11] [%] | residual activity [12] [%] | residual activity [13] [%] | residual activity [14] [%] | residual activity [15] [%] | residual activity [16] [%] | residual activity [17] [%] | residual activity [18] [%] | residual activity [19] [%] | residual activity [20] [%]
CCc1ccccc1C(=O)Nc1n[nH]c2c(C)c(F)c(C3C(C#N)=C(C)N(C)C(C)=C3C#N)cc12 [BAY-3827] | 100 | 88 | 51 | 100 | 95 | 98 | 100 | 390 nM | 100 | 6.23 | 100 | 100 | 96 | 86 | 100 | 100 | 97 | 88 | 98 | 100
CC1=C(C#N)C(c2ccc3c(c2)c(NC(=O)c2ccccc2C)nn3C)C(C#N)=C(C)N1 [BAY-974] | 80 | 63 | 61 | 100 | 100 | 100 | 77 | > 30000 nM (not active) | 100 | 0.94 | 70 | 62 | 85 | 88 | 79 | 97 | 82 | 66 | 80 | 100
